# Data from ChEMBL document CHEMBL1649540, “The novel CXCR4 antagonist KRH-3955 is an orally bioavailable and extremely potent inhibitor of human immunodeficiency virus type 1 infection: comparative studies with AMD3100” (Antimicrob Agents Chemother, 2009).
# Active and inactive are the calls of the source. No cut-off for these calls is given here.
# Key:
# [1] = tested on: Human immunodeficiency virus 1; test: Antiviral activity against HIV1 NL4-3 infected in human PBMC assessed as inhibition of viral p24 antigen production after 7 to 10 days by ELISA; format: functional, organism-based; details: Human immunodeficiency virus 1, NL4-3
# [2] = tested on: Human immunodeficiency virus 1; test: Antiviral activity against HIV1 X4 infected in human PBMC assessed as inhibition of viral p24 antigen production after 7 to 10 days by ELISA; format: functional, organism-based; details: Human immunodeficiency virus 1, X4
# [3] = tested on: Human immunodeficiency virus 1; test: Antiviral activity against HIV1 89.6 infected in human PBMC assessed as inhibition of viral p24 antigen production after 7 to 10 days by ELISA; format: functional, organism-based; details: Human immunodeficiency virus 1, 89.6
# [4] = tested on: Human immunodeficiency virus 1; test: Antiviral activity against HIV1 JRCSF infected in human PBMC assessed as inhibition of viral p24 antigen production after 7 to 10 days by ELISA; format: functional; details: Human immunodeficiency virus 1, JRCSF ISOLATE
# [5] = tested on: Human immunodeficiency virus 1; test: Antiviral activity against HIV1 R5 infected in human PBMC assessed as inhibition of viral p24 antigen production after 7 to 10 days by ELISA; format: functional, organism-based; details: Human immunodeficiency virus 1, R5
# [6] = tested on: Human immunodeficiency virus 1; test: Antiviral activity against HIV1 A018H infected in human PBMC assessed as inhibition of viral p24 antigen production after 7 to 10 days by ELISA; format: functional, organism-based; details: Human immunodeficiency virus 1, A018H
# [7] = tested on: Human immunodeficiency virus 1; test: Antiviral activity against HIV1 A018G infected in human PBMC assessed as inhibition of viral p24 antigen production after 7 to 10 days by ELISA; format: functional, organism-based; details: Human immunodeficiency virus 1, A018G
# [8] = tested on: Human immunodeficiency virus 1; test: Antiviral activity against HIV1 NL4-3 infected in HEK293 cells assessed as inhibition of viral replication after 2 days; format: functional, organism-based; details: Human immunodeficiency virus 1, NL4-3, HEK293, 48 h
# [9] = tested on: Human immunodeficiency virus 1; test: Antiviral activity against HIV1 HXB2 infected in HEK293 cells assessed as inhibition of viral replication after 2 days; format: functional, organism-based; details: Human immunodeficiency virus 1, HXB2, HEK293, 48 h
# [10] = tested on: Human immunodeficiency virus 1; test: Antiviral activity against NRTI-resistant HIV1 HXB2 infected in HEK293 cells assessed as inhibition of viral replication after 2 days; format: functional, organism-based; details: Human immunodeficiency virus 1, HXB2, HEK293, 48 h
# [11] = tested on: Human immunodeficiency virus 1; test: Antiviral activity against NNRTI-resistant HIV1 HXB2 infected in HEK293 cells assessed as inhibition of viral replication after 2 days; format: functional, organism-based; details: Human immunodeficiency virus 1, HXB2, HEK293, 48 h
# [12] = tested on: Human immunodeficiency virus 1; test: Antiviral activity against PI-resistant HIV1 HXB2 infected in HEK293 cells assessed as inhibition of viral replication after 2 days; format: functional, organism-based; details: Human immunodeficiency virus 1, HXB2, HEK293, 48 h
# [13] = tested on: Human immunodeficiency virus 1; test: Antiviral activity against multidrug resistant HIV1 HXB2 infected in HEK293 cells assessed as inhibition of viral replication after 2 days; format: functional, organism-based; details: Human immunodeficiency virus 1, HXB2, HEK293, 48 h
# [14] = tested on: Human immunodeficiency virus 1; test: Antiviral activity against T20-resistant HIV1 NL4-3 infected in HEK293 cells assessed as inhibition of viral replication after 2 days; format: functional, organism-based; details: Human immunodeficiency virus 1, NL4-3, HEK293, 48 h
# [15] = molecular target: T1, C-X-C chemokine receptor type 4 (Homo sapiens, UniProt P61073); test: Displacement of [125I]SDF-1alpha form CXCR4 expressed in CHO cells at 0.1 to 1000 nmol/L by scintillation counting; format: cell-based
# [16] = tested on: C-X-C chemokine receptor type 4 (Homo sapiens), P61073 [V112A]; test: Inhibition of Mab 12G5 binding to CXCR4 V112A mutant expressed in HEK293 cells; format: cell-based
# [17] = tested on: C-X-C chemokine receptor type 4 (Homo sapiens), P61073 [D181A]; test: Inhibition of Mab 12G5 binding to CXCR4 D181A mutant expressed in HEK293 cells; format: cell-based
# [18] = tested on: C-X-C chemokine receptor type 4 (Homo sapiens), P61073 [V280A]; test: Inhibition of Mab 12G5 binding to CXCR4 V280A mutant expressed in HEK293 cells; format: cell-based
# [19] = tested on: C-X-C chemokine receptor type 4 (Homo sapiens), P61073 [H281A]; test: Inhibition of Mab 12G5 binding to CXCR4 H281A mutant expressed in HEK293 cells; format: cell-based
# [20] = molecular target: T1, C-X-C chemokine receptor type 4; details: MOLT-4; 1000 nM
# Description: Inhibition of Mab 12G5 binding to CXCR4 expressed in human MOLT4 cells at 1000 nM by FACS analysis
# [21] = molecular target: T1, C-X-C chemokine receptor type 4; details: MOLT-4; 1000 nM; remark: listed apart in the source
# Description: Inhibition of Mab 12G5 binding to CXCR4 expressed in human MOLT4 cells at 1000 nM measured post drug washout by FACS analysis
# T1 sequence (P61073 whole entry): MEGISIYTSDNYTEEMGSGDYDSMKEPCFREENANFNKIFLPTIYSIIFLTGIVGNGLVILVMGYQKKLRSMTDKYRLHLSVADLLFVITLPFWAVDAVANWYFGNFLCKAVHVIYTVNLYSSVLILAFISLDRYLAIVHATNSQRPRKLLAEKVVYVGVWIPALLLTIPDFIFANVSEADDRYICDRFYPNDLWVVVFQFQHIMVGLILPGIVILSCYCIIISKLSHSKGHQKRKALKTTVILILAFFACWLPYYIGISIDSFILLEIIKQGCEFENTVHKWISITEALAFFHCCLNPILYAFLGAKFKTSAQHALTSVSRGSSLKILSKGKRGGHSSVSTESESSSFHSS
# Chain of C-X-C chemokine receptor type 4 (Homo sapiens), P61073 [D181A] (P61073 whole entry D181A): as the sequence (P61073 whole entry) above, with D181A counted along it
# Chain of C-X-C chemokine receptor type 4 (Homo sapiens), P61073 [H281A] (P61073 whole entry H281A): as the sequence (P61073 whole entry) above, with H281A counted along it
# Chain of C-X-C chemokine receptor type 4 (Homo sapiens), P61073 [V280A] (P61073 whole entry V280A): as the sequence (P61073 whole entry) above, with V280A counted along it
# Chain of C-X-C chemokine receptor type 4 (Homo sapiens), P61073 [V112A] (P61073 whole entry V112A): as the sequence (P61073 whole entry) above, with V112A counted along it
Compound,EC50 [1] [nM],EC50 [2] [nM],EC50 [3] [nM],EC50 [4] [nM],EC50 [5] [nM],EC50 [6] [nM],EC50 [7] [nM],further results
NCCCCN(Cc1nc2ccccc2[nH]1)[C@H]1CCCc2cccnc21 [MAVORIXAFOR],35,15,55,> 200,> 200,,,
Cc1cn([C@H]2C[C@H](N=[N+]=[N-])[C@@H](CO)O2)c(=O)[nH]c1=O [ZIDOVUDINE],11,8,7.4,0.96,6.2,1.9,87000,
COC[C@@H](c1ccc(C(F)(F)F)cc1)N1CCN(C2(C)CCN(C(=O)c3c(C)ncnc3C)CC2)C[C@@H]1C [VICRIVIROC],> 1000,> 1000,> 1000,0.37,1.2,,,
c1cc(CN2CCCNCCNCCCNCC2)ccc1CN1CCCNCCNCCCNCC1 [PLERIXAFOR],41,15,44,> 200,> 200,38,32,IC50 [8]: 4.6 nM; IC50 [9]: 6.2 nM; IC50 [10]: 9 nM; IC50 [11]: 7 nM; IC50 [12]: 9.2 nM; IC50 [13]: 5.3 nM; IC50 [14]: 2.3 nM; Activity [15]: inactive; IC90 [16]: 821 nM; IC90 [17]: 796 nM; IC90 [18]: 821 nM; IC90 [19]: 572 nM; inhibition [20]: Active; inhibition [21]: inactive
CC(C)(C)NC(=O)[C@@H]1C[C@@H]2CCCC[C@@H]2CN1C[C@@H](O)[C@H](Cc1ccccc1)NC(=O)[C@H](CC(N)=O)NC(=O)c1ccc2ccccc2n1,9,29,9.9,2.6,8,,,
